According to article PMC4016962 (Molecules, 2014):

The compounds below were run against T1, B. anthracis DHFR (Bacillus anthracis, UniProt Q81R22) (assay: biochemical).
T1 construct: gene dfrA
T1 sequence (Q81R22 1-162): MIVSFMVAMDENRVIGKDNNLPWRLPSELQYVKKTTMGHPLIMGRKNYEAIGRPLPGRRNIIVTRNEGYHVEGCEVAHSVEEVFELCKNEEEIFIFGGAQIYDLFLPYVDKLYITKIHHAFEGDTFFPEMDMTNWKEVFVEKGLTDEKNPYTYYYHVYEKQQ

Structure (SMILES)	Ki [nM]
COc1cc(Cc2cnc(N)nc2N)cc(/C=C/C(=O)N2N=Cc3ccccc3C2C)c1OC (racemic) [6a, (±)-(E)-3-(5-((2,4-Diaminopyrimidin-5-yl)methyl)-2,3-dimethoxyphenyl)-1-(1-methylphthalazin-2(1H)-yl)prop-2-en-1-one]	8.8 ± 0.2
CCC1c2ccccc2C=NN1C(=O)/C=C/c1cc(Cc2cnc(N)nc2N)cc(OC)c1OC (racemic) [6b, (±)-(E)-3-(5-((2,4-Diaminopyrimidin-5-yl)methyl)-2,3-dimethoxyphenyl)-1-(1-ethylphthalazin-2(1H)-yl)prop-2-en-1-one]	6.8 ± 0.2
CCCCC1c2ccccc2C=NN1C(=O)/C=C/c1cc(Cc2cnc(N)nc2N)cc(OC)c1OC (racemic) [6c, (±)-(E)-1-(1-n-Butylphthalazin-2(1H)-yl)-3-(5-((2,4-diaminopyrimidin-5-yl)methyl)-2,3-dimethoxyphenyl)prop-2-en-1-one]	7.9 ± 0.2
CCC(C)C1c2ccccc2C=NN1C(=O)/C=C/c1cc(Cc2cnc(N)nc2N)cc(OC)c1OC (racemic) [6d, (±)-(E)-1-(1-s-Butylphthalazin-2(1H)-yl)-3-(5-((2,4-diaminopyrimidin-5-yl)methyl)-2,3-dimethoxyphenyl)prop-2-en-1-one]	10.4 ± 0.2
COc1cc(Cc2cnc(N)nc2N)cc(/C=C/C(=O)N2N=Cc3ccccc3C2C2CC2)c1OC (racemic) [6e, (±)-(E)-1-(1-Cyclopropylphthalazin-2(1H)-yl)-3-(5-((2,4-diaminopyrimidin-5-yl)methyl)-2,3-dimethoxyphenyl)prop-2-en-1-one]	4.9 ± 0.2
COc1cc(Cc2cnc(N)nc2N)cc(/C=C/C(=O)N2N=Cc3ccccc3C2c2ccco2)c1OC (racemic) [6f, (±)-(E)-3-(5-((2,4-Diaminopyrimidin-5-yl)methyl)-2,3-dimethoxyphenyl)-1-(1-(furan-2-yl)phthalazin-2(1H)-yl)prop-2-en-1-one]	5.9 ± 0.2
COc1cc(Cc2cnc(N)nc2N)cc(/C=C/C(=O)N2N=Cc3ccccc3C2c2cccs2)c1OC (racemic) [6g, (±)-(E)-3-(5-((2,4-Diaminopyrimidin-5-yl)methyl)-2,3-dimethoxyphenyl)-1-(1-(thiophen-2-yl)-phthalazin-2(1H)-yl)prop-2-en-1-one]	8.4 ± 0.2
COc1cc(Cc2cnc(N)nc2N)cc(/C=C/C(=O)N2N=Cc3ccccc3C2c2ccccn2)c1OC (racemic) [6h, (±)-(E)-3-(5-((2,4-Diaminopyrimidin-5-yl)methyl)-2,3-dimethoxyphenyl)-1-(1-(pyridin-2-yl)phthalazin-2(1H)-yl)prop-2-en-1-one]	9 ± 0.2
COc1cc(Cc2cnc(N)nc2N)cc(/C=C/C(=O)N2N=Cc3ccccc3C2CC(=O)OC(C)(C)C)c1OC (racemic) [11a, t-Butyl (±)-(E)-2-(2-(3-(5-((2,4-Diaminopyrimidin-5-yl)methyl)-2,3-dimethoxyphenyl)acryloyl)-phthal-azin-2(1H)-yl)acetate]	59 ± 0.9
CCOC(=O)CC1c2ccccc2C=NN1C(=O)/C=C/c1cc(Cc2cnc(N)nc2N)cc(OC)c1OC (racemic) [11b, Ethyl (±)-(E)-2-(2-(3-(5-((2,4-Diaminopyrimidin-5-yl)methyl)-(2,3-dimethoxyphenyl)acryloyl)-phthal-azin-2(1H)-yl)acetate]	24.9 ± 0.3
COC(=O)CC1c2ccccc2C=NN1C(=O)/C=C/c1cc(Cc2cnc(N)nc2N)cc(OC)c1OC (racemic) [11c, Methyl (±)-(E)-2-(2-(3-(5-((2,4-Diaminopyrimidin-5-yl)methyl)-2,3-dimethoxyphenyl)acryloyl)-phthal-azin-2(1H)-yl)acetate]	20 ± 0.3
